According to PMC6979384, “Characterization of the plant homeodomain (PHD) reader family for their histone tail interactions” (Epigenetics & Chromatin, 2020):
Where no end group is shown, it is not given here. [ ]: non-standard residue; d: D form. pS = N[C@@H](COP(=O)(O)O)C(=O)O

Columns and labels:
Assay in all cases: Histone peptide microarray
Type in all cases: binding, human
PHF13 = settings: PHF13, GST-tagged; arrays performed twice, n of 4
From the text: (§1) To more comprehensively define the histone interactions of the 31 PHD readers identified from the domain microarray analyses, we probed each on an alternate microarray platform containing a library of 293 synthetic histone peptides with single or combinatorial PTMs (Additional file 2: Figure S4 and Additional file 3: Table S2).
(§2) The 31 GST-tagged PHD readers identified in the PHD finger domain array were expressed and purified as previously. Histone peptide arrays and peptide pulldown assays were conducted as recently described (specifically, the optimized protocol from Petell et al. for the former).
(§3) Supplementary file 13072_2020_328_MOESM3_ESM.xlsx: Additional file 3: Table S2. […] Excel Tab Peptide List is a compiled list of the entire 293 histone peptide library with amino acid sequence ranges. […] Each number corresponds to the peptide number designated in Peptide List. Excel Tab Average Signals is a compiled set of binding data: chromatin reader at 0.5 μM vs. entire 293 peptide library. Data is presented as the average and standard deviation of 4 replicates. The average signals are colored to indicate signal intensity with green being strong and white being weak/low. […] Key: red= stronger relative binding; blue = weaker relative binding. Excel Tab Array info summary is a table summarizing the domains, sequence coverage, array signal range, and noise for each of the GST-tagged readers assayed on the peptide microarrays.

PHF23 = settings: PHF23, GST-tagged; arrays performed twice, n of 4
From the text: as §1, §2, §3

KDM5A (1) = settings: KDM5A (1), GST-tagged; arrays performed twice, n of 4
From the text: as §1, §2, §3

CHD5 (PCC) = settings: CHD5 (PCC), GST-tagged; arrays performed twice, n of 4
From the text: as §1, §2, §3

TAF3 = settings: TAF3, GST-tagged; arrays performed twice, n of 4
From the text: as §1, §2, §3

TRIM66 (PB) = settings: TRIM66 (PB), GST-tagged; arrays performed twice, n of 4
From the text: as §1, §2, §3

KDM5B (3) = settings: KDM5B (3), GST-tagged; arrays performed twice, n of 4
From the text: as §1, §2, §3

MLL5 = settings: MLL5, GST-tagged; arrays performed twice, n of 4
From the text: as §1, §2, §3

CHD5 (PPCC) = settings: CHD5 (PPCC), GST-tagged; arrays performed twice, n of 4
From the text: as §1, §2, §3

ING2 = settings: ING2, GST-tagged; arrays performed twice, n of 4
From the text: as §1, §2, §3

KDM5B (1) = settings: KDM5B (1), GST-tagged; arrays performed twice, n of 4
From the text: as §1, §2, §3

DIDO1 = settings: DIDO1, GST-tagged; arrays performed twice, n of 4
From the text: as §1, §2, §3

ING3 = settings: ING3, GST-tagged; arrays performed twice, n of 4
From the text: as §1, §2, §3

PHF21A = settings: PHF21A, GST-tagged; arrays performed twice, n of 4
From the text: as §1, §2, §3

PHF2 = settings: PHF2, GST-tagged; arrays performed twice, n of 4
From the text: as §1, §2, §3

KDM7A = settings: KDM7A, GST-tagged; arrays performed twice, n of 4
From the text: as §1, §2, §3

SP140L = settings: SP140L, GST-tagged; arrays performed twice, n of 4
From the text: as §1, §2, §3

AIRE (PP) = settings: AIRE (PP), GST-tagged; arrays performed twice, n of 4
From the text: as §1, §2, §3

BPTF (PB) = settings: BPTF (PB), GST-tagged; arrays performed twice, n of 4
From the text: as §1, §2, §3

ING1 = settings: ING1, GST-tagged; arrays performed twice, n of 4
From the text: as §1, §2, §3

PHRF1 (RP) = settings: PHRF1 (RP), GST-tagged; arrays performed twice, n of 4
From the text: as §1, §2, §3

MORC3 (CW) = settings: MORC3 (CW), GST-tagged; arrays performed twice, n of 4
From the text: as §1, §2, §3

CHD4 (PPCC) = settings: CHD4 (PPCC), GST-tagged; arrays performed twice, n of 4
From the text: as §1, §2, §3

KDM4C (TTP) = settings: KDM4C (TTP), GST-tagged; arrays performed twice, n of 4
From the text: as §1, §2, §3

DPF2 (PPC2W2) = settings: DPF2 (PPC2W2), GST-tagged; arrays performed twice, n of 4
From the text: as §1, §2, §3

RAG2 = settings: RAG2, GST-tagged; arrays performed twice, n of 4
From the text: as §1, §2, §3

ING5 = settings: ING5, GST-tagged; arrays performed twice, n of 4
From the text: as §1, §2, §3

ING4 = settings: ING4, GST-tagged; arrays performed twice, n of 4
From the text: as §1, §2, §3

PHF8 = settings: PHF8, GST-tagged; arrays performed twice, n of 4
From the text: as §1, §2, §3

KDM5A (3) = settings: KDM5A (3), GST-tagged; arrays performed twice, n of 4
From the text: as §1, §2, §3

BAZ2B = settings: BAZ2B, GST-tagged; arrays performed twice, n of 4
From the text: as §1, §2, §3

Array Heatmap value (peptide array binding signal) (PHF13)	Array Heatmap value (peptide array binding signal) (PHF23)	Array Heatmap value (peptide array binding signal) (KDM5A (1))	Array Heatmap value (peptide array binding signal) (CHD5 (PCC))	Array Heatmap value (peptide array binding signal) (TAF3)	Array Heatmap value (peptide array binding signal) (TRIM66 (PB))	Array Heatmap value (peptide array binding signal) (KDM5B (3))	Array Heatmap value (peptide array binding signal) (MLL5)	Array Heatmap value (peptide array binding signal) (CHD5 (PPCC))	Array Heatmap value (peptide array binding signal) (ING2)	Array Heatmap value (peptide array binding signal) (KDM5B (1))	Array Heatmap value (peptide array binding signal) (DIDO1)	Array Heatmap value (peptide array binding signal) (ING3)	Array Heatmap value (peptide array binding signal) (PHF21A)	Array Heatmap value (peptide array binding signal) (PHF2)	Array Heatmap value (peptide array binding signal) (KDM7A)	Array Heatmap value (peptide array binding signal) (SP140L)	Array Heatmap value (peptide array binding signal) (AIRE (PP))	Array Heatmap value (peptide array binding signal) (BPTF (PB))	Array Heatmap value (peptide array binding signal) (ING1)	other results	Substance
0.6036	0.5205	0.482	0.7774	0.2828	0.5729	0.5168	0.519	0.5428	0.5905	0.6538	0.6263	0.4609	0.4797	0.4023	0.4384	0.3555	0.5117	0.3406	0.5008	Array Heatmap value (peptide array binding signal) (PHRF1 (RP)): 0.4027; Array Heatmap value (peptide array binding signal) (MORC3 (CW)): 0.4032; Array Heatmap value (peptide array binding signal) (CHD4 (PPCC)): 0.5891; Array Heatmap value (peptide array binding signal) (KDM4C (TTP)): 0.5241; Array Heatmap value (peptide array binding signal) (DPF2 (PPC2W2)): 0.6038; Array Heatmap value (peptide array binding signal) (RAG2): 0.2429; Array Heatmap value (peptide array binding signal) (ING5): 0.3496; Array Heatmap value (peptide array binding signal) (ING4): 0.4636; Array Heatmap value (peptide array binding signal) (PHF8): 0.3673; Array Heatmap value (peptide array binding signal) (KDM5A (3)): 0.391; Array Heatmap value (peptide array binding signal) (BAZ2B): 0.4549	H2AS1p + K5ac + K9ac + K13ac + K15ac: H2A 1-17 ([pS]GRGK(Ac)QGGK(Ac)ARAK(Ac)AK(Ac)TR; UniProt P0C0S8 2-18, looked up, fragment)
0.4493	0.4819	0.3412	0.6294	0.2127	0.4856	0.3803	0.4623	0.3972	0.5878	0.5673	0.6049	0.3526	0.3599	0.5004	0.2299	0.2923	0.2932	0.2697	0.485	Array Heatmap value (peptide array binding signal) (PHRF1 (RP)): 0.3697; Array Heatmap value (peptide array binding signal) (MORC3 (CW)): 0.3086; Array Heatmap value (peptide array binding signal) (CHD4 (PPCC)): 0.4644; Array Heatmap value (peptide array binding signal) (KDM4C (TTP)): 0.3213; Array Heatmap value (peptide array binding signal) (DPF2 (PPC2W2)): 0.5432; Array Heatmap value (peptide array binding signal) (RAG2): 0.2266; Array Heatmap value (peptide array binding signal) (ING5): 0.2521; Array Heatmap value (peptide array binding signal) (ING4): 0.3411; Array Heatmap value (peptide array binding signal) (PHF8): 0.2793; Array Heatmap value (peptide array binding signal) (KDM5A (3)): 0.4071; Array Heatmap value (peptide array binding signal) (BAZ2B): 0.3559	H2AS1p + K5ac: H2A 1-17 ([pS]GRGK(Ac)QGGKARAKAKTR; UniProt P0C0S8 2-18, looked up, fragment)
